In one experiment the test system is Giardia intestinalis. The experiment is described as follows: Antiprotozoal activity against Giardia intestinalis IMSS:0981:1 trophozoites after 48 hrs. It is filed as functional, organism-based. The settings on record: Giardia duodenalis.
The test system of a further experiment is Trichomonas vaginalis. The experiment is described as follows: Antiprotozoal activity against Trichomonas vaginalis GT3 trophozoites after 48 hrs. It is filed as functional, organism-based. As to conditions: GT3, 48 h.

Results on 26 compounds are retold here after ChEMBL document CHEMBL1152735, “Synthesis and antiprotozoal activity of novel 1-methylbenzimidazole derivatives” (Bioorg Med Chem, 2009).

By IC50 is commonly meant the midpoint of a concentration-inhibition curve. A lower IC50 goes with inhibition by little substance. With `CC(=O)c1nc2ccc(Cl)cc2n1C`, the results for the IC50 in the experiment with Giardia intestinalis and in the experiment with Trichomonas vaginalis were 0.067 µM and 0.228 µM, respectively.

In the case of `CCOC(=O)c1nc2cc(Cl)c(Cl)cc2n1C`, the IC50 in the experiment on Giardia intestinalis was 0.0275 µM; with Trichomonas vaginalis, 0.0293 µM.

Regarding `CC(=O)c1nc2ccccc2n1C`, the results for the IC50 in the experiment on Giardia intestinalis and in the experiment with Trichomonas vaginalis were 0.0861 µM and 0.209 µM, respectively.

For `CN(C)C(=O)c1nc2cc(Cl)c(Cl)cc2n1C`, the IC50 was determined as 0.0735 µM in the experiment on Giardia intestinalis and 0.0753 µM in the experiment with Trichomonas vaginalis. In the same order, the values of `CN(C)C(=O)c1nc2ccccc2n1C` are 0.512 µM and 0.43 µM. The like results for `Cn1c(C(N)=O)nc2ccc(Cl)cc21` were, in that order, 0.0763 µM and 0.109 µM. The like results for `CNC(=O)c1nc2cc(Cl)c(Cl)cc2n1C` were, in that order, 0.151 µM and 0.225 µM.

On to `CCOC(=O)c1nc2ccccc2n1C`, for which the IC50 in the experiment on Giardia intestinalis was 0.0686 µM; in the experiment on Trichomonas vaginalis, 0.0857 µM. As to `Cn1c(C(N)=O)nc2ccccc21`, the IC50 was 0.0942 µM in the experiment on Giardia intestinalis and 0.166 µM in the experiment on Trichomonas vaginalis.

On to `CNC(=O)c1nc2ccc(Cl)cc2n1C`, for which the values for the IC50 in the experiment on Giardia intestinalis and in the experiment on Trichomonas vaginalis were 0.0715 µM and 0.105 µM, respectively. For `Cn1c(C(N)=O)nc2cc(Cl)ccc21`, the IC50 with Giardia intestinalis was 0.234 µM; in the experiment on Trichomonas vaginalis it was 0.186 µM.

For `CNC(=O)c1nc2ccccc2n1C`, the IC50 was 0.0608 µM with Giardia intestinalis and 0.108 µM in the experiment on Trichomonas vaginalis. On to `CN(C)C(=O)c1nc2ccc(Cl)cc2n1C`, for which the values for the IC50 with Giardia intestinalis and in the experiment on Trichomonas vaginalis were 0.04 µM and 0.238 µM, respectively. Take `Cn1c(C(N)=O)nc2cc(Cl)c(Cl)cc21`: the IC50 came to 0.462 µM in the experiment on Giardia intestinalis and 0.134 µM with Trichomonas vaginalis. Turning to `CC(O)c1nc2cc(Cl)ccc2n1C` (stereo not given), the results for the IC50 in the experiment with Giardia intestinalis and in the experiment on Trichomonas vaginalis were 0.0379 µM and 0.0949 µM, respectively. In the case of `CCOC(=O)c1nc2cc(Cl)ccc2n1C`, the IC50 with Giardia intestinalis worked out at 0.0398 µM; in the experiment with Trichomonas vaginalis, 0.0272 µM. Regarding `CC(O)c1nc2ccccc2n1C` (stereo not given), the IC50 with Giardia intestinalis came out at 0.0681 µM; in the experiment on Trichomonas vaginalis, 0.167 µM. `CC(=O)c1nc2cc(Cl)ccc2n1C`: the IC50 amounted to 0.0503 µM in the experiment on Giardia intestinalis and 0.132 µM in the experiment on Trichomonas vaginalis.

Compound `CCCSc1ccc2[nH]c(NC(=O)OC)nc2c1` [ALBENDAZOLE] registered an IC50 in the experiment with Trichomonas vaginalis of 1.59 µM. For `CNC(=O)c1nc2cc(Cl)ccc2n1C`, the IC50 in the experiment with Giardia intestinalis and in the experiment on Trichomonas vaginalis was 0.358 µM throughout.

As to `CC(O)c1nc2cc(Cl)c(Cl)cc2n1C` (stereo not given), the IC50 in the experiment with Giardia intestinalis stood at 0.0203 µM; in the experiment with Trichomonas vaginalis it was 0.0407 µM. For the compound `Cc1ncc([N+](=O)[O-])n1CCO` [METRONIDAZOLE], in the experiment with Trichomonas vaginalis, the IC50 turned out to be 0.236 µM.

Turning to `CC(O)c1nc2ccc(Cl)cc2n1C` (stereo not given), the IC50 in the experiment with Giardia intestinalis was 0.0712 µM; with Trichomonas vaginalis, 0.109 µM. The like results for `CCOC(=O)c1nc2ccc(Cl)cc2n1C` were, in that order, 0.0482 µM and 0.0189 µM. For the compound `CC(=O)c1nc2cc(Cl)c(Cl)cc2n1C`, the IC50 with Giardia intestinalis is 0.0349 µM; in the experiment on Trichomonas vaginalis it was 0.0637 µM. Consider `CN(C)C(=O)c1nc2cc(Cl)ccc2n1C`, for which the results for the IC50 in the experiment with Giardia intestinalis and in the experiment on Trichomonas vaginalis were 0.244 µM and 0.21 µM, respectively.
